This is an account of results in US12390448B2, “Prevention or of disease states due to metal dis-homeostasis via administration of posiphen to healthy or sick humans” (ANNOVIS BIO, INC., priority 2017, dated 2025).

Data set [1] deals with neurotoxic aggregating proteins. Put plainly: Translation of neurotoxic aggregating proteins in healthy mouse brain. It counts as in vivo. An excerpt:
Therefore, the original data concerning the effects of Posiphen working under all conditions is wrong. It only works in stressed cells, dividing cells and sick cells, e.g., those cells that have high levels of iron.

Data set [2] deals with T1, IRP1/H-Ferritin RNA complex (Homo sapiens, UniProt P21399).
T1 sequence (P21399 1-889): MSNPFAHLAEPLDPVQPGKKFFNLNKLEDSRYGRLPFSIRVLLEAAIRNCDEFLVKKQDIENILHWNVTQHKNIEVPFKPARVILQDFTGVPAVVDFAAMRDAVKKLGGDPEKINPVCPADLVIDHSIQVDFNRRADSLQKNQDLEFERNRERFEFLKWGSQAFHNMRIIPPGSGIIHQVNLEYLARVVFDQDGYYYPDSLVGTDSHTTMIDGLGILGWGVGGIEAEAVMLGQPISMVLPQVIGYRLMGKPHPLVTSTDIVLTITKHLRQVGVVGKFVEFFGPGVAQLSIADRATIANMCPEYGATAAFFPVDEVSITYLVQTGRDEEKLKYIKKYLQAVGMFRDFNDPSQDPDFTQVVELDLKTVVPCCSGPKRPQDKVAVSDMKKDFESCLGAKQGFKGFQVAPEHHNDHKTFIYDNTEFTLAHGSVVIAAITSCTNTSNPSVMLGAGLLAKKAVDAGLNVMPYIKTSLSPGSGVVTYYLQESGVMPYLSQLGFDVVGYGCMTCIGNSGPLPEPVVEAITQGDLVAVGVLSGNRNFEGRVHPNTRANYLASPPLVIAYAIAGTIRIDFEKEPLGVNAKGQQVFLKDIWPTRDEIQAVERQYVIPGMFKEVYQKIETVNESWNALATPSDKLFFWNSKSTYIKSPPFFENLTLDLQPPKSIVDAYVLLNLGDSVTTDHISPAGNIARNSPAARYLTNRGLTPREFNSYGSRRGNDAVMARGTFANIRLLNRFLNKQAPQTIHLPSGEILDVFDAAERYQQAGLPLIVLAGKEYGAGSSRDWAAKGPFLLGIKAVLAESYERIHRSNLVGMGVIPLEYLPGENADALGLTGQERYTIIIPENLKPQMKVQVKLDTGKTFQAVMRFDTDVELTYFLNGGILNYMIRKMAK
Put plainly: MST binding of Posiphen to IRP1/H-Ferritin RNA complex. Conditions: IRP1/H-Ferritin 2, 250 nM; Posiphen tartrate. The procedure:
(§1) Microscale thermophoresis (MST) binding experiments were done to assess binding in vitro between the different components. MST binding experiments were performed by incubating N-termini labeled protein (2 nM) with serial 2-fold dilutions of IRE RNAs, H-Ferritin ([…]) or APP ([…]) for 10 min in incubation buffer (Tris pH 7.4, 0.5%, 15 mM NaCl and 0.1% Prionex). IPR-1 was N-termini labeled with RED-NHS amino reactive labeling kit (NanoTemper Technologies, Germany). For determination of Posiphen binding, reactions containing IPR1 (2 nM), IRP1/H-Ferritin (2, 250 nM), or IRP1/APP (2, 600 nM) were incubated for 10 min with 2-fold dilutions of Posiphen tartrate. After incubation, samples were centrifuged at 13,000 rpm for 2 minutes before being loaded into standard capillaries provided by the manufacturer. Fluorescence values from the binding reactions were determined using the Monolith NT.115 (Nano Temper Technologies). Kd values were using the NanoTemper Technologies software. Conditions were standardized.

The subject of a further data set is retinal neurons. Put plainly: Acute glaucoma in rats, retinal cell death. It counts as in vivo. The conditions noted are these: acute glaucoma by raised intraocular pressure. An excerpt:
When acute glaucoma is induced by increasing the pressure in an eye, the retina gets destroyed. In Example 10, acute glaucoma was induced in rats by increasing intraocular pressure by micro-injection of saline into the anterior chamber. This induces large amounts of apoptotic cell death in the retina. There are twice as many dead cells in high pressure retinas of rats treated with vehicle versus control untreated rats. Posiphen rescued 72% of the retinal neurons. The results are depicted in FIG. 23. Administration of Posiphen to those rats preserves the retina and protects the retinal cells from dying.

A further data set addresses T2, IRP1/APP RNA complex (Homo sapiens, UniProt P21399).
T2 sequence (P21399 1-889): T1 sequence (P21399 1-889)
Put plainly: MST binding of Posiphen to IRP1/APP RNA complex. Conditions: IRP1/APP 2, 600 nM; Posiphen tartrate; read-out: Kd, binding of Posiphen to APP IRE/IRP1 complex. The procedure: as §1

The next data set has as its system aSYN. In words: aSYN in enteric nervous system of transgenic PD mice. It is filed as in vivo. The conditions noted are these: PAC-Tg(SNCAA53T) mice, 21 weeks. The procedure: In Example 6, the effect of Posiphen on mice homozygous for the PAC-Tg(SNCAA53T) transgene was tested over the course of 21 weeks.
The conditions of data set [3]: cited from earlier work.
For a further data set, the system named is SNCA. The conditions noted are these: cited from earlier work.
The target in another data set is T3, IRP1 (Homo sapiens, UniProt P21399).
T3 sequence (P21399 1-889): T1 sequence (P21399 1-889)
In words: Microscale thermophoresis (MST) binding of IRE RNAs to IRP1. Conditions: cell free, labeled IRP1 2 nM, without Posiphen; read-out: Kd of IRE RNA binding to IRP1. The procedure: as §1
(Microscale thermophoresis detects binding through changes in fluorescence in a small temperature gradient.)

Values joined by “and” are separate entries in the source; they are usually repeats but may differ in a detail not shown here. Equal entries are not always repeated.

With `CN1CC[C@]2(C)c3cc(OC(=O)Nc4ccccc4)ccc3N(C)C12` (stereo partly drawn) [Posiphen, (3aR)-1,3a,8-trimethyl-1,2,3,3a,8,8a-hexahydropyrrolo[2,3-b]indol-5-ylphenylcarbamate], in data set [1], the “translation of neurotoxic aggregating proteins” value was “does not inhibit”. Further, the “binding of Posiphen to the IRP1/H-Ferritin RNA complex” value in data set [2] is on record as “no binding”. In the data set with retinal neurons, the retinal neurons rescued is reported as 72%. On IRP1/APP RNA complex, the Kd was 3.2 nM and 3.22 nM. Besides, the “inhibition of aSYN in enteric nerves” value in the data set on aSYN is “about 40%”. Also, the tolerability result in data set [3] (doses up to 4×60 mg daily×10 days, humans) was “well tolerated”. In data set [3] (human, all doses), the “terminal half-life in plasma” value is 4.3 to 4.7 h.
With `C[C@]12CC[C@H]3[C@@H](CC[C@]4(O)C[C@@H](O)CC[C@]34C=O)[C@@]1(O)CC[C@@H]2C1=CC(=O)OC1` [strophanthidine], the “SNCA expression in neural cells, Western blotting” value in the data set on SNCA is “selectively blocked”.
For “APP: APP IRE RNA oligo GGUGGCGGCGCGGGCAGAGCAAGGACGCGGCGGAU (RNA, backbone not given here)”, in the data set with IRP1, the Kd was 225 nM.
With “H-Ferritin: H-Ferritin IRE RNA oligo GGGGUUUCCUGCUUCAACAGUGCUUGGACGGAACC (RNA, backbone not given here)”, the Kd in the data set with IRP1 is 88.5 nM.
